Data on six molecules can be found in ChEMBL document CHEMBL1154147, “Antityrosinase and antioxidant effects of ent-kaurane diterpenes from leaves of Broussonetia papyrifera” (J Nat Prod, 2008).

Test [1] deals with Radical scavenging activity.
Description: Antioxidant activity assessed as DPPH free radical scavenging activity after 30 mins
For test [2], the target named is T1, Tyrosinase (Agaricus bisporus, UniProt O42713).
T1 sequence (O42713 whole entry): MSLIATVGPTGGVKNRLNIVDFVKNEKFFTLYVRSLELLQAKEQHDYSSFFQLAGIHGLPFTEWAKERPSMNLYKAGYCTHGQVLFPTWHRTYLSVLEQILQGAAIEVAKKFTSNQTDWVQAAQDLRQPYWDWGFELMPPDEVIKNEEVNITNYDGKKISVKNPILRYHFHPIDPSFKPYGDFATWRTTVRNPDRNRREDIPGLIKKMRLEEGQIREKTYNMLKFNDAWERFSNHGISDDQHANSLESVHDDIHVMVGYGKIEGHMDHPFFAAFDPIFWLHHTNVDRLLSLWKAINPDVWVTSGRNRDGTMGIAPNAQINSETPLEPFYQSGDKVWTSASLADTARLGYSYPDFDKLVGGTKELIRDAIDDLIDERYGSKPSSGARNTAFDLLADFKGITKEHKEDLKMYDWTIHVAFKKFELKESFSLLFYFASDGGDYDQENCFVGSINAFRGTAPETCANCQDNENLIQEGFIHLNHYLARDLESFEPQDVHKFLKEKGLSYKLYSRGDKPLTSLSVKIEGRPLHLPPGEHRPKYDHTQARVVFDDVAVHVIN
Description: (§1) Inhibition of mushroom tyrosinase after 30 mins

Test [3] has as its target T1, Tyrosinase. This is another data set of the same source.
Description: (§2) Inhibition of mushroom tyrosinase after 90 mins
For test [4], the target named is T1, Tyrosinase. This is another data set of the same source.
Description: as §2
In test [5] the target is T1, Tyrosinase. This is another data set of the same source.
Description: as §1

With `CC1(C)CCC[C@]2(C)[C@@H]1C(=O)[C@@H](O)[C@@]13C[C@H](CC[C@@H]21)[C@@](O)(CO)C3` [BROUSSONETONE A], the values for the IC50 entry in test [1], in test [2] and in test [3] were “Not Active”, 336 µM and 322 µM, respectively.

In the case of `O=c1cc(-c2ccc(O)cc2)oc2cc(O)cc(O)c12` [APIGENIN], the IC50 result is “Not Active” in test [1], 305 µM in test [2] and 305 µM in test [3].

For `O=c1cc(-c2ccc(O)cc2)oc2c([C@@H]3O[C@H](CO)[C@@H](O)[C@H](O)[C@H]3O)c(O)cc(O)c12` [VITEXIN], the half-maximal inhibitory concentration (IC50) entry in test [1], in test [4] and in test [5] was “Not Active” throughout.

With `CC1(C)CCC[C@]2(C)[C@@H]1C(=O)[C@H](O)[C@@]13C[C@H](CC[C@@H]21)[C@@](O)(CO)C3` [BROUSSONETONE B], the IC50 entry is “Not Active” in test [1], 317 µM in test [3] and “Not Active” in test [5].

`COc1ccc(O)c(C(C)(C)C)c1.COc1ccc(O)cc1C(C)(C)C` [BUTYLATED HYDROXYANISOLE]: in test [1], the IC50 came out at 79.2 µM.

Regarding `CC1(C)OC[C@]2(C[C@]34C[C@@H]2CC[C@H]3[C@]2(C)CCCC(C)(C)[C@H]2C(=O)[C@H]4O)O1` [BROUSSONETONE C], the figures for the IC50 entry in test [1], in test [2] and in test [3] were “Not Active”, 353 µM and 323 µM, respectively.
